These molecules were tested on Setaria faberi (SETFA) (assay: B1 pre-emergence herbicidal activity). Conditions: Test 1b, rate 1000 g/ha, evaluated after 13 days, score 0-5 (5=total damage, 0=no damage).
Type: in vivo
Set-up: key to Pre-emergence herbicidal activity, SETFA: 5=total damage to plant; 0=no damage to plant
Experimental: (§1) Seeds of a variety of test species were sown in standard soil in pots: Triticum aestivium (TRZAW), Avena fatua (AVEFA), Alopecurus myosuroides (ALOMY), Echinochloa crus-galli (ECHCG), Lolium perenne (LOLPE), Zea mays (ZEAMX), Abutilon theophrasti (ABUTH), Amaranthus retroflexus (AMARE) and Setaria faberi (SETFA). After cultivation for one day (pre-emergence) under controlled conditions in a glasshouse (at 24/16° C., day/night; 14 hours light; 65% humidity), the plants were sprayed with an aqueous spray solution derived from the formulation of the technical active ingredient in acetone/water (50:50) solution containing 0.5% Tween 20 (polyoxyethelyene sorbitan monolaurate, CAS RN 9005-64-5). The test plants were then grown in a glasshouse under controlled conditions (at 24/16° C., day/night; 14 hours light; 65% humidity) and watered twice daily. After 13 days, the test was evaluated (5=total damage to plant; 0=no damage to plant).

Row | SMILES | Pre-emergence herbicidal activity, SETFA
1 | CC(C)COC(=O)Nc1cnc(-c2cncc(F)c2)nc1C(F)(F)F [Compound E15] | 5
2 | O=C1OCCN1c1cnc(-c2cncc(F)c2)nc1C(F)(F)F [Compound E17] | 4

Each molecule was assayed on Alopecurus myosuroides (ALOMY) (assay: B1 pre-emergence herbicidal activity). Conditions: Test 1b, rate 1000 g/ha, evaluated after 13 days, score 0-5 (5=total damage, 0=no damage).
Type: in vivo
Set-up: key: 5=total damage to plant; 0=no damage to plant
Experimental: as §1

Row | SMILES | Pre-emergence herbicidal activity, ALOMY
3 | CC(C)COC(=O)Nc1cnc(-c2cncc(F)c2)nc1C(F)(F)F [Compound E15] | 0
4 | O=C1OCCN1c1cnc(-c2cncc(F)c2)nc1C(F)(F)F [Compound E17] | 0

Each molecule was assayed on Avena fatua (AVEFA) (assay: B1 pre-emergence herbicidal activity). Conditions: Test 1b, rate 1000 g/ha, evaluated after 13 days, score 0-5 (5=total damage, 0=no damage).
Type: in vivo
Set-up: key: 5=total damage to plant; 0=no damage to plant
Experimental: as §1

Row | SMILES | Pre-emergence herbicidal activity, AVEFA
5 | CC(C)COC(=O)Nc1cnc(-c2cncc(F)c2)nc1C(F)(F)F [Compound E15] | 2
6 | O=C1OCCN1c1cnc(-c2cncc(F)c2)nc1C(F)(F)F [Compound E17] | 0

The molecules below were run on Lolium perenne (LOLPE) (assay: B1 pre-emergence herbicidal activity). Conditions: Test 1b, rate 1000 g/ha, evaluated after 13 days, score 0-5 (5=total damage, 0=no damage).
Type: in vivo
Set-up: key: 5=total damage to plant; 0=no damage to plant
Experimental: as §1

Row | SMILES | Pre-emergence herbicidal activity, LOLPE
7 | CC(C)COC(=O)Nc1cnc(-c2cncc(F)c2)nc1C(F)(F)F [Compound E15] | 1
8 | O=C1OCCN1c1cnc(-c2cncc(F)c2)nc1C(F)(F)F [Compound E17] | 0

Each molecule was assayed on Triticum aestivium (TRZAW) (assay: B1 pre-emergence herbicidal activity). Conditions: Test 1b, rate 1000 g/ha, evaluated after 13 days, score 0-5 (5=total damage, 0=no damage).
Type: in vivo
Set-up: key: 5=total damage to plant; 0=no damage to plant
Experimental: as §1

Row | SMILES | Pre-emergence herbicidal activity, TRAZW
9 | CC(C)COC(=O)Nc1cnc(-c2cncc(F)c2)nc1C(F)(F)F [Compound E15] | 0
10 | O=C1OCCN1c1cnc(-c2cncc(F)c2)nc1C(F)(F)F [Compound E17] | 0

These molecules were tested on Alopecurus myosuroides (ALOMY) (assay: B2 post-emergence herbicidal activity). Conditions: Test 2b, rate 1000 g/ha, evaluated after 13 days, score 0-5 (5=total damage, 0=no damage).
Type: in vivo
Set-up: key: 5=total damage to plant; 0=no damage to plant
Experimental: (§2) Seeds of a variety of test species were sown in standard soil in pots: Triticum aestivium (TRZAW), Avena fatua (AVEFA), Alopecurus myosuroides (ALOMY), Echinochloa crus-galli (ECHCG), Lolium perenne (LOLPE), Zea mays (ZEAMX), Abutilon theophrasti (ABUTH), Amaranthus retroflexus (AMARE) and Setaria faberi (SETFA). After 8 days cultivation (post-emergence) under controlled conditions in a glasshouse (at 24/16° C., day/night; 14 hours light; 65% humidity), the plants were sprayed with an aqueous spray solution derived from the formulation of the technical active ingredient in acetone/water (50:50) solution containing 0.5% Tween 20 (polyoxyethelyene sorbitan monolaurate, CAS RN 9005-64-5). The test plants were then grown in a glasshouse under controlled conditions (at 24/16° C., day/night; 14 hours light; 65% humidity) and watered twice daily. After 13 days, the test was evaluated (5=total damage to plant; 0=no damage to plant).

Row | SMILES | Control of weed species after post-emergence application, ALOMY
11 | CC(C)COC(=O)Nc1cnc(-c2cncc(F)c2)nc1C(F)(F)F [Compound E15] | 1
12 | O=C1OCCN1c1cnc(-c2cncc(F)c2)nc1C(F)(F)F [Compound E17] | 0

The molecules below were run on Setaria faberi (SETFA) (assay: B2 post-emergence herbicidal activity). Conditions: Test 2b, rate 1000 g/ha, evaluated after 13 days, score 0-5 (5=total damage, 0=no damage).
Type: in vivo
Set-up: key: 5=total damage to plant; 0=no damage to plant
Experimental: as §2

Row | SMILES | Control of weed species after post-emergence application, SETFA
13 | CC(C)COC(=O)Nc1cnc(-c2cncc(F)c2)nc1C(F)(F)F [Compound E15] | 5
14 | O=C1OCCN1c1cnc(-c2cncc(F)c2)nc1C(F)(F)F [Compound E17] | 4

What follows are molecules tested on Echinochloa crus-galli (ECHCG) (assay: B2 post-emergence herbicidal activity). Conditions: Test 2b, rate 1000 g/ha, evaluated after 13 days, score 0-5 (5=total damage, 0=no damage).
Type: in vivo
Set-up: key: 5=total damage to plant; 0=no damage to plant
Experimental: as §2

Row | SMILES | Control of weed species after post-emergence application, ECHCG
15 | CC(C)COC(=O)Nc1cnc(-c2cncc(F)c2)nc1C(F)(F)F [Compound E15] | 5
16 | O=C1OCCN1c1cnc(-c2cncc(F)c2)nc1C(F)(F)F [Compound E17] | 3

What follows are molecules tested on Avena fatua (AVEFA) (assay: B2 post-emergence herbicidal activity). Conditions: Test 2b, rate 1000 g/ha, evaluated after 13 days, score 0-5 (5=total damage, 0=no damage).
Type: in vivo
Set-up: key: 5=total damage to plant; 0=no damage to plant
Experimental: as §2

Row | SMILES | Control of weed species after post-emergence application, AVEFA
17 | CC(C)COC(=O)Nc1cnc(-c2cncc(F)c2)nc1C(F)(F)F [Compound E15] | 4
18 | O=C1OCCN1c1cnc(-c2cncc(F)c2)nc1C(F)(F)F [Compound E17] | 2

These molecules were tested on Lolium perenne (LOLPE) (assay: B2 post-emergence herbicidal activity). Conditions: Test 2b, rate 1000 g/ha, evaluated after 13 days, score 0-5 (5=total damage, 0=no damage).
Type: in vivo
Set-up: key: 5=total damage to plant; 0=no damage to plant
Experimental: as §2

Row | SMILES | Control of weed species after post-emergence application, LOLPE
19 | CC(C)COC(=O)Nc1cnc(-c2cncc(F)c2)nc1C(F)(F)F [Compound E15] | 3
20 | O=C1OCCN1c1cnc(-c2cncc(F)c2)nc1C(F)(F)F [Compound E17] | 1

The molecules below were run on Triticum aestivium (TRZAW) (assay: B2 post-emergence herbicidal activity). Conditions: Test 2b, rate 1000 g/ha, evaluated after 13 days, score 0-5 (5=total damage, 0=no damage).
Type: in vivo
Set-up: key: 5=total damage to plant; 0=no damage to plant
Experimental: as §2

Row | SMILES | Control of weed species after post-emergence application, TRAZW
21 | CC(C)COC(=O)Nc1cnc(-c2cncc(F)c2)nc1C(F)(F)F [Compound E15] | 2
22 | O=C1OCCN1c1cnc(-c2cncc(F)c2)nc1C(F)(F)F [Compound E17] | 1

These molecules were tested on Echinochloa crus-galli (ECHCG) (assay: B1 pre-emergence herbicidal activity). Conditions: Test 1b, rate 1000 g/ha, evaluated after 13 days, score 0-5 (5=total damage, 0=no damage).
Type: in vivo
Set-up: key to Pre-emergence herbicidal activity, ECHCG: 5=total damage to plant; 0=no damage to plant
Experimental: as §1

Row | SMILES | Pre-emergence herbicidal activity, ECHCG
23 | CC(C)COC(=O)Nc1cnc(-c2cncc(F)c2)nc1C(F)(F)F [Compound E15] | 5
24 | O=C1OCCN1c1cnc(-c2cncc(F)c2)nc1C(F)(F)F [Compound E17] | 3

From patent US20200288711A1, “Pyrimidin-4-Carbamate or Urea Derivatives As Herbicides” (Syngenta Participations AG, priority 2017, published 2020)
